Source: the NIST ThermoML archive (doi:10.1021/acs.jced.7b00201)
Numbers after ± are expanded uncertainties.

Legend:
[1] = 100 kPa, Liquid; for viscosity: Falling or rolling sphere viscometry; for mass density: Vibrating tube method
[2] = xn = mol fraction of the nth substance listed; conditions: 100 kPa, Liquid; for viscosity: Falling or rolling sphere viscometry; for mass density: Vibrating tube method

CCCCC1CCCCC1 [butylcyclohexane]
[1]
Conditions	mass density [kg/m3]	viscosity [mPa·s]
293.15 K	799.34 ± 1	1.305 ± 0.028
298.15 K	795.59 ± 1	1.202 ± 0.026
303.15 K	791.84 ± 1	1.112 ± 0.024
308.15 K	788.07 ± 1	1.033 ± 0.022
313.15 K	784.3 ± 1	0.963 ± 0.021
318.15 K	780.52 ± 1	0.901 ± 0.019
323.15 K	776.74 ± 1	0.844 ± 0.018
328.15 K	772.93 ± 1	0.794 ± 0.017
333.15 K	769.13 ± 1	0.749 ± 0.016
338.15 K	765.3 ± 1	0.708 ± 0.015
343.15 K	761.47 ± 1	0.67 ± 0.014

CCCCC1CCCCC1 [butylcyclohexane] + OCC1CC1
[2], x2 = 0
Conditions	mass density [kg/m3]	viscosity [mPa·s]
293.15 K	799.34 ± 1	1.305 ± 0.028
298.15 K	795.59 ± 1	1.202 ± 0.026
303.15 K	791.84 ± 1	1.112 ± 0.024
308.15 K	788.07 ± 1	1.033 ± 0.022
313.15 K	784.3 ± 1	0.963 ± 0.021
318.15 K	780.52 ± 1	0.901 ± 0.019
323.15 K	776.74 ± 1	0.844 ± 0.018
328.15 K	772.93 ± 1	0.794 ± 0.017
333.15 K	769.13 ± 1	0.749 ± 0.016
338.15 K	765.3 ± 1	0.708 ± 0.015
343.15 K	761.47 ± 1	0.67 ± 0.014

OCC1CC1 [cyclopropylmethanol]
[1]
Conditions	mass density [kg/m3]	viscosity [mPa·s]
293.15 K	912.99 ± 1	4.029 ± 0.086
298.15 K	908.94 ± 1	3.485 ± 0.075
303.15 K	904.85 ± 1	3.037 ± 0.065
308.15 K	900.74 ± 1	2.661 ± 0.057
313.15 K	896.58 ± 1	2.344 ± 0.05
318.15 K	892.38 ± 1	2.074 ± 0.044
323.15 K	888.13 ± 1	1.843 ± 0.04
328.15 K	883.84 ± 1	1.646 ± 0.035
333.15 K	879.49 ± 1	1.476 ± 0.032
338.15 K	875.07 ± 1	1.328 ± 0.028
343.15 K	870.62 ± 1	1.201 ± 0.026

CCCCCCCCCCCC [dodecane]
[1]
Conditions	mass density [kg/m3]	viscosity [mPa·s]
293.15 K	748.83 ± 1	1.481 ± 0.031
298.15 K	745.23 ± 1	1.355 ± 0.029
303.15 K	741.6 ± 1	1.244 ± 0.026
308.15 K	737.97 ± 1	1.151 ± 0.024
313.15 K	734.33 ± 1	1.066 ± 0.023
318.15 K	730.68 ± 1	0.992 ± 0.021
323.15 K	727.01 ± 1	0.926 ± 0.02
328.15 K	723.35 ± 1	0.867 ± 0.018
333.15 K	719.67 ± 1	0.814 ± 0.017
338.15 K	715.98 ± 1	0.765 ± 0.016
343.15 K	712.28 ± 1	0.724 ± 0.015

CCCCCCCCCCCC [dodecane] + CCCCC1CCCCC1
[2], x1 = 1
Conditions	mass density [kg/m3]	viscosity [mPa·s]
293.15 K	748.83 ± 1	1.481 ± 0.031
298.15 K	745.23 ± 1	1.355 ± 0.029
303.15 K	741.6 ± 1	1.244 ± 0.026
308.15 K	737.97 ± 1	1.151 ± 0.024
313.15 K	734.33 ± 1	1.066 ± 0.023
318.15 K	730.68 ± 1	0.992 ± 0.021
323.15 K	727.01 ± 1	0.926 ± 0.02
328.15 K	723.35 ± 1	0.867 ± 0.018
333.15 K	719.67 ± 1	0.814 ± 0.017
338.15 K	715.98 ± 1	0.765 ± 0.016
343.15 K	712.28 ± 1	0.724 ± 0.015

CCCCCCCCCCCC [dodecane] + OCC1CC1
[2], x2 = 0
Conditions	mass density [kg/m3]	viscosity [mPa·s]
293.15 K	748.83 ± 1	1.481 ± 0.031
298.15 K	745.23 ± 1	1.355 ± 0.029
303.15 K	741.6 ± 1	1.244 ± 0.026
308.15 K	737.97 ± 1	1.151 ± 0.024
313.15 K	734.33 ± 1	1.066 ± 0.023
318.15 K	730.68 ± 1	0.992 ± 0.021
323.15 K	727.01 ± 1	0.926 ± 0.02
328.15 K	723.35 ± 1	0.867 ± 0.018
333.15 K	719.67 ± 1	0.814 ± 0.017
338.15 K	715.98 ± 1	0.765 ± 0.016
343.15 K	712.28 ± 1	0.724 ± 0.015
